Laboratory results as given in patent EP4741383A1, “COMPOUND AND USE THEREOF AS ANTI-CANCER DRUG” (Tyligand Bioscience (Shanghai) Limited, priority 2023, dated 2025).

Legend:
Format in all cases: biochemical
SHP1 = target: T1, SHP1 (Homo sapiens, UniProt P29350); experiment: Tyrosine phosphatase selectivity (pNPP substrate), SHP1; details: for IC50: SHP1, pNPP substrate; for IC50PTP/IC50SHP2 SHP1: selectivity ratio SHP1 over SHP2
T1 construct: made in house; host or cells: E. coli
Experimental: (§1) This experiment evaluated the selectivity of the disclosed compounds against tyrosine phosphatases, including SHP1, HePTP, Laforin, LMWPTP, LYP, PTP1B, PRL2, SSU72, VHR, FAP1, STEP, CDC14A, CD45, MEG2, and PP5, all expressed and purified from E. coli.
(§2) Phosphatase activity was measured using p-nitrophenyl phosphate (pNPP) (Fisher Scientific) as the substrate in 50 mM 3,3-dimethylglutaric acid buffer (pH 7.0, containing 1 mM EDTA), with ionic strength adjusted to 0.15 M with NaCl. […] After 10-60 minutes, the reaction was quenched by adding 20 µL of 5 N NaOH. Wells without enzyme were used as controls for correction. The amount of the product, p-nitrophenol, was determined by measuring the absorbance at 405 nm using a Spectra MAX340 microplate spectrophotometer (Molecular Devices), with a molar extinction coefficient of 18000 M^-1cm^-1.
(§3) Data were analyzed using GraphPad Prism software. Dose-response curves were obtained by fitting data using the nonlinear S-curve regression Dose-response-inhibition equation, and IC50 values were calculated.

STEP = target: T2, STEP (Homo sapiens, UniProt P54829); experiment: Tyrosine phosphatase selectivity (pNPP substrate), STEP; details: for IC50: STEP, pNPP substrate; for IC50PTP/IC50SHP2 STEP: selectivity ratio STEP over SHP2
T2 construct: made in house; host or cells: E. coli
T2 sequence (P54829 1-565): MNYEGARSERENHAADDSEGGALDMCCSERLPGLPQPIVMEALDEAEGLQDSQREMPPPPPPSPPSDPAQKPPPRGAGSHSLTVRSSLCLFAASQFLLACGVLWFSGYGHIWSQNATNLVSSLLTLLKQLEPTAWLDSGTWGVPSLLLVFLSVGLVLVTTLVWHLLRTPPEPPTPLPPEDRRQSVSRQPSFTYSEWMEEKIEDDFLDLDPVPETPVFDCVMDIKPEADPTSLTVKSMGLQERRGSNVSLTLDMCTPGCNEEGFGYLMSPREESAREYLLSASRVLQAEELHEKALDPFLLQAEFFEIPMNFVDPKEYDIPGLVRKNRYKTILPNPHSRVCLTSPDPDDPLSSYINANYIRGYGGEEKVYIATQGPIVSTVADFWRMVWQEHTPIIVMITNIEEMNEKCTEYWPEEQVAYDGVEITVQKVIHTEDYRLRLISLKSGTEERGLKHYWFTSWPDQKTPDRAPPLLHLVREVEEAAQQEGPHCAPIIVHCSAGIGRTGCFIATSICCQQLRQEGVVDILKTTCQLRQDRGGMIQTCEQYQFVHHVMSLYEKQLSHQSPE
Experimental: as §1, §2, §3

CDC14A = target: T3, CDC14A (Homo sapiens, UniProt Q9UNH5); experiment: Tyrosine phosphatase selectivity (pNPP substrate), CDC14A; details: for IC50: CDC14A, pNPP substrate; for IC50PTP/IC50SHP2 CDC14A: selectivity ratio CDC14A over SHP2
T3 construct: made in house; host or cells: E. coli
T3 sequence (Q9UNH5 1-594): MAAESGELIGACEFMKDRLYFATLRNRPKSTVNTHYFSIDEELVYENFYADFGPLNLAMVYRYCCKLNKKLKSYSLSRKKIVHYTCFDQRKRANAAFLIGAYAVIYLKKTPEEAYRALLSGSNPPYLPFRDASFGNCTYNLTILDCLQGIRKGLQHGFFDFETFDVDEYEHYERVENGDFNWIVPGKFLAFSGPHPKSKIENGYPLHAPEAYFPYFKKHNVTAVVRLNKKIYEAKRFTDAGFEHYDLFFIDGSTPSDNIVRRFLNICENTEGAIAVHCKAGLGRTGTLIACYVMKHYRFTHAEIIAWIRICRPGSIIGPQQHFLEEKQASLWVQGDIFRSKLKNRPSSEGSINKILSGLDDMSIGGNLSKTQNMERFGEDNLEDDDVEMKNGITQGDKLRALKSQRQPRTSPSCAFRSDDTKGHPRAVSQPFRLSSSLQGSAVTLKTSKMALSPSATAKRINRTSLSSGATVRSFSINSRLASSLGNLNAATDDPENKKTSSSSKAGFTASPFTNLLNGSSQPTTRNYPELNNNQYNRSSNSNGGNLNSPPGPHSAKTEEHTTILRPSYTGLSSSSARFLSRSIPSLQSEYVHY
Experimental: as §1, §2, §3

VHR = target: T4, VHR (Homo sapiens, UniProt P51452); experiment: Tyrosine phosphatase selectivity (pNPP substrate), VHR; details: for IC50: VHR, pNPP substrate; for IC50PTP/IC50SHP2 VHR: selectivity ratio VHR over SHP2
T4 construct: made in house; host or cells: E. coli
T4 sequence (P51452 whole entry, species assumed): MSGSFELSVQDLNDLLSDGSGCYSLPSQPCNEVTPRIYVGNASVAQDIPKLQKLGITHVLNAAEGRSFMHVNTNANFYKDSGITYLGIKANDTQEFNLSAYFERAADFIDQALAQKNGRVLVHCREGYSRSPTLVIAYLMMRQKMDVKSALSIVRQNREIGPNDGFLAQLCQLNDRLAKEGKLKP
Experimental: as §1, §2, §3

FAP1 = experiment: Tyrosine phosphatase selectivity (pNPP substrate), FAP1; details: selectivity ratio FAP1 over SHP2
Experimental: as §1, §2, §3

PRL2 = target: T5, PRL2 (Homo sapiens, UniProt Q12974); experiment: Tyrosine phosphatase selectivity (pNPP substrate), PRL2; details: for IC50: PRL2, pNPP substrate; for IC50PTP/IC50SHP2 PRL2: selectivity ratio PRL2 over SHP2
T5 construct: made in house; host or cells: E. coli
T5 sequence (Q12974 1-167): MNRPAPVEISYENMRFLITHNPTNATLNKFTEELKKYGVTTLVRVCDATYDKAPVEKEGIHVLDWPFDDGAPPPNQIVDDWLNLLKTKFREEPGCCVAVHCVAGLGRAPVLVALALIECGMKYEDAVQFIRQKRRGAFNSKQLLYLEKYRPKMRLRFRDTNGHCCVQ
Experimental: as §1, §2, §3

PTP1B = target: T6, PTP1B (Homo sapiens, UniProt P18031); experiment: Tyrosine phosphatase selectivity (pNPP substrate), PTP1B; details: for IC50: PTP1B, pNPP substrate; for IC50PTP/IC50SHP2 PTP1B: selectivity ratio PTP1B over SHP2
T6 construct: made in house; host or cells: E. coli
T6 sequence (P18031 1-435): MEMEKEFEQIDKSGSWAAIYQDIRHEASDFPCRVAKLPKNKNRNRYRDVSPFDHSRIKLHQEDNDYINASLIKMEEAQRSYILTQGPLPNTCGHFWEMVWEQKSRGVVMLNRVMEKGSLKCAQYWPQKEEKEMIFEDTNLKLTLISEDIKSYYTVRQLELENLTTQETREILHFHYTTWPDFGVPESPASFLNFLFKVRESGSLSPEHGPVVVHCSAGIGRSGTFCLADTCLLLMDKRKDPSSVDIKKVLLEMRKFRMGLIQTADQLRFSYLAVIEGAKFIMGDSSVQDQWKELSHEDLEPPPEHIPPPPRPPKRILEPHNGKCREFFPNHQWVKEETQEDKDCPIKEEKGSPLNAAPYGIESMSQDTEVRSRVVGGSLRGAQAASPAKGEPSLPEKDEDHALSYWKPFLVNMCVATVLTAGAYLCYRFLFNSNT
Experimental: as §1, §2, §3

LMWPTP = target: T7, LMWPTP (Homo sapiens, UniProt P24666); experiment: Tyrosine phosphatase selectivity (pNPP substrate), LMWPTP; details: for IC50: LMPTP*, pNPP substrate; for IC50PTP/IC50SHP2 LMPTP*: selectivity ratio LMPTP* over SHP2
T7 construct: made in house; host or cells: E. coli
T7 sequence (P24666 1-158): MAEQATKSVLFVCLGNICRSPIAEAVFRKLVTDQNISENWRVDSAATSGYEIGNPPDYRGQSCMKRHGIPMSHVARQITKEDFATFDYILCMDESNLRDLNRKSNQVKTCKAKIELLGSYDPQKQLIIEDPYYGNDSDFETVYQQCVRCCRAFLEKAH
Experimental: as §1, §2, §3

T1 sequence (P29350 whole entry): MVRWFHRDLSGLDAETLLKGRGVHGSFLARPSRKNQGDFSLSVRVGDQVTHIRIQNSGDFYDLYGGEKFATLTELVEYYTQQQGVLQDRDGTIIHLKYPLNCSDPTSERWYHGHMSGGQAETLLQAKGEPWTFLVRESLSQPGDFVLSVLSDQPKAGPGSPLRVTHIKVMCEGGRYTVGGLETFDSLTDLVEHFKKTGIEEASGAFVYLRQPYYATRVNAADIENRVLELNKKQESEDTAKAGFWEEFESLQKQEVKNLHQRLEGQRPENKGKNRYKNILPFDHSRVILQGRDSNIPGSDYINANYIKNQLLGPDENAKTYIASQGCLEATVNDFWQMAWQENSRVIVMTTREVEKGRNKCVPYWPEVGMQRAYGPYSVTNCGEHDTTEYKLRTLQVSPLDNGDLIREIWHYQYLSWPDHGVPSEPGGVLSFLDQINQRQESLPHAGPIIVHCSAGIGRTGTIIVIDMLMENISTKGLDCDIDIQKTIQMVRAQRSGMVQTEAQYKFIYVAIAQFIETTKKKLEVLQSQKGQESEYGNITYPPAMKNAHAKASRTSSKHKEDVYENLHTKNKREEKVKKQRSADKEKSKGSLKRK

| SMILES | IC50 (SHP1) [µM] | IC50PTP/IC50SHP2 SHP1 (SHP1) | IC50 (STEP) [µM] | IC50PTP/IC50SHP2 STEP (STEP) | IC50 (CDC14A) [µM] | IC50PTP/IC50SHP2 CDC14A (CDC14A) | IC50 (VHR) [µM] | IC50PTP/IC50SHP2 VHR (VHR) | IC50PTP/IC50SHP2 FAP1 (FAP1) | IC50 (PRL2) [µM] | IC50PTP/IC50SHP2 PRL2 (PRL2) | IC50 (PTP1B) [µM] | IC50PTP/IC50SHP2 PTP1B (PTP1B) | IC50 (LMWPTP) [µM] | IC50PTP/IC50SHP2 LMPTP* (LMWPTP) |
| --- | --- | --- | --- | --- | --- | --- | --- | --- | --- | --- | --- | --- | --- | --- | --- |
| Cn1cc(-c2ccc(NC(=O)C(=O)Nc3ccc(-c4cc5cc(F)c(-c6noc(=O)[nH]6)cc5n4C4CCC4)cc3)cc2)cn1 [Example 123] | 0.32 | 2.3 | 15.5 | 109.9 | > 100 | 709.2 | 2.44 | 17.3 | 51.8 | > 100 | 709.2 | 1.2 | 8.5 | 2.48 | 17.6 |
| CC1(n2c(-c3ccc(NC(=O)C(=O)Nc4ccc(N5CCC6(CCOC6)CC5)cc4)cc3)cc3cc(F)c(-c4nnn[nH]4)cc32)CCC1 [Example 68] | 0.383 | 8.0 | 8.23 | 171.5 | > 25 | 520.8 | > 25 | 520.8 | 11.7 | > 25 | 520.8 | 1.5 | 31.3 | 0.37 | 7.7 |
| O=C(Nc1ccc(-c2ccsc2)cc1)C(=O)Nc1ccc(-c2cc3ccc(-c4nnn[nH]4)nc3n2C2CCC2)cc1 [Example 129] | 0.7 | 11.9 | < 3 | 50.8 | 34.6 | 586.4 | < 3 | 50.8 | 71.2 | > 50 | 847.5 | 8.5 | 144.1 | > 20 | 339.0 |
| O=C(Nc1ccc(-c2oc3cc(F)c(-c4nnn[nH]4)cc3c2C2CCC2)cc1)C(=O)Nc1ccc(N2CCC3(CCOC3)CC2)cc1 [Example 125] | 0.17 | 3.3 | 6.62 | 129.8 | > 100 | 1960.8 | 88.2 | 1729.4 | 145.9 | > 100 | 1960.8 | 6.28 | 123.1 | 2.24 | 43.9 |
| O=C(Nc1ccc(-c2ccsc2)cc1)C(=O)Nc1ccc(-c2cc3cc(F)c(-c4nnn[nH]4)cc3n2C2CCC2)cc1 [Example 4] | 0.6 | 20.7 | 4.5 | 155.2 | > 50 | 1724.1 | 4.5 | 155.2 | 672.4 | > 50 | 1724.1 | 3.2 | 110.3 | > 20 | 689.7 |
| Cn1c(-c2cccc(NC(=O)C(=O)Nc3ccc(-c4ccsc4)cc3)c2)c(I)c2cc(C(=O)O)c(O)cc21 [Example 11a-1, reference compound] | 0.8 | 7.4 | 4 | 37.0 | 16 | 148 | 3.2 | 29.6 |  |  |  | 2.29 | 21.2 | 2.34 | 21.6 |

Further lines, results first:

| IC50 (SHP1) [µM] | IC50PTP/IC50SHP2 SHP1 (SHP1) | IC50 (STEP) [µM] | IC50PTP/IC50SHP2 STEP (STEP) | IC50 (CDC14A) [µM] | IC50PTP/IC50SHP2 CDC14A (CDC14A) | IC50 (VHR) [µM] | IC50PTP/IC50SHP2 VHR (VHR) | IC50PTP/IC50SHP2 FAP1 (FAP1) | IC50 (PRL2) [µM] | IC50PTP/IC50SHP2 PRL2 (PRL2) | IC50 (PTP1B) [µM] | IC50PTP/IC50SHP2 PTP1B (PTP1B) | IC50 (LMWPTP) [µM] | IC50PTP/IC50SHP2 LMPTP* (LMWPTP) | SMILES |
| --- | --- | --- | --- | --- | --- | --- | --- | --- | --- | --- | --- | --- | --- | --- | --- |
| 0.8 | 30.8 | 8.4 | 323.1 | > 50 | 1923.1 | 9.9 | 380.8 | 423.1 | > 50 | 1923.1 | 4.7 | 180.8 | > 20 | 769.2 | O=C(Nc1ccc(-c2ccsc2)cc1)C(=O)Nc1ccc(-c2cc3cnc(-c4nnn[nH]4)nc3n2C2CCC2)cc1 [Example 131] |
| 0.6 | 22.2 | 10.6 | 392.6 | > 50 | 1851.9 | 10.3 | 381.5 | 500 | > 50 | 1851.9 | 2.7 | 100 | > 20 | 740.7 | O=C(Nc1ccc(-c2ccsc2)cc1)C(=O)Nc1ccc(-c2cc3cc(F)c(-c4nnn[nH]4)nc3n2C2CCC2)cc1 [Example 132] |
| 0.6 | 24.0 | < 3 | 120 | > 50 | 2000 | < 3 | 120 | 120 | > 50 | 2000 | 11.6 | 464 | > 20 | 800 | O=C(Nc1ccc(-c2ccsc2)cc1)C(=O)Nc1ccc(-c2oc3cc(F)c(-c4nnn[nH]4)cc3c2C2CCC2)cc1 [Example 130] |
